Data as given in patent US6043373A, “Heterocycle-fused thiazole derivatives” (Yungjin Pharmaceutical Co., Ltd., priority 1995, dated 2000).
pIC50: −log10 of the molar value.

Legend:
Ethanol-Induced Lesions = experiment: Inhibition of Ethanol-Induced Lesions; format: in vivo, male Sprague-Dawley rats; details: rat, oral, 30 minutes before absolute ethanol (5 ml/kg); read-out: Anti-ulcer activity (ED50), Ethanol
Protocol: Inhibition activity of the inventive compound on the ethanol-induced ulcer was measured by using male sprague-Dawley rats weighing 180-200 g. Thus, rats were starved for 24 hours, and the inventive compound (Examples 1 and 17) or omeprazole as a positive control was orally administered. Thirty minutes later, absolute ethanol (5 ml/kg was orally administered. 1.5 hours later, the stomach was removed, and the degree of the wound of the stomach was measured. By comparing the measured values with the degree of the lesion of the stomach the reference group to which no test compound was administered, the effective dose (ED50) of the test compounds which inhibit the lesion by 50% were calculated and are shown in Table 3.

Mepirizole-Induced Ulcer = experiment: Inhibition of Mepirizole-Induced Ulcer (duodenum); format: in vivo, male Sprague-Dawley rats; details: rat, oral, 30 minutes before mepirizole (250 mg/kg); read-out: Anti-ulcer activity (ED50), Mepirizole
Protocol: Inhibition activity of the inventive compounds on the mepirizole-induced ulcers was measured by using male Spraque-Dawley rats weighing 200-230 g. Thus, rats were not starved, and the inventive compounds (Examples 1 and 17) or omeprazole as a positive control was orally administered. Thirty minutes later, mepirizole suspended in 1% CMC (250 mg/kg) was orally administered. […], the duodena were removed. The degree of the ulcer thereof was measured. By comparing the measured values with the degree of the ulcer of the duodena of the reference group to which no test compound was administered, the effective deses (ED50) of the test compounds which inhibit the ulcer by 50% were calculated and are shown in Table 3.

[1] = test system: Indomethacin-Induced Lesions; experiment: Inhibition of Indomethacin-Induced Lesions; format: in vivo, male Sprague-Dawley rats; details: rat, oral, before 35 mg/kg indomethacin s.c.; read-out: Anti-ulcer activity (ED50), Indomethacin
Protocol: Inhibition activities of the inventive compounds on the indome][…]-induced lesions was measured by using male Sprague-Dawley rats. Thus, rats were starved for 48 hours and prohibited from being supplied with water for 2 hours, and 35 mg/kg of indomethacin (Sigma Co.) as a causative of gastric lesions was subcutaneously administered. Before Indomethacine treatment, the inventive compounds (Examples 1 and 17) or omeprazole as a positive control was orally administered, and the inhibitions of lesions by the action of the test compounds were observed.

Stress-Induced Ulcer = experiment: Inhibition of Stress-Induced Ulcer (water immersion); format: in vivo, male Sprague-Dawley rats; details: rat, oral, 30 minutes prior to immersion in water; read-out: Anti-ulcer activity (ED50), Stress
Protocol: Inhibition activity of the inventive compound on the stress-induced ulcer was evaluated by using male Sprague-Dawley rats. Thus, rats were starved for 24 hours prior to carrying out the experiment. Stress is an important factor for causing gastric lesions, and was applied to rats by immersing them in water. Thirty minutes prior to immersing rats into water, the inventive compounds (Examples 1 and 17) or omeprazole as a positive control was orally administered, and the inhibitions of ulcer by the action of the test compounds were observed.

[2] = test system: Acetic Acid-Induced Ulcer; experiment: Inhibition of Acetic Acid-Induced Ulcer (healing); format: in vivo, male Sprague-Dawley rats; details: rat, oral, 30 mg/kg, for 10 days
Protocol: Inhibition activity of the inventive compound on-the acetic acid-induced ulcer was evaluated by using male Sprague-Dawley rats. Thus, rats were starved for 5 hours prior to carrying out the experiment.
20 Microliter of 30% acetic acid was injected into the submucosal layer of the stomach using a microsyringe to induce a circular ulcer on the stomach. Various doses of the inventive compounds (Examples 1 and 17) or omeprazole as a positive control were orally administered for 10 days, and the healing of ulcer by the action of the test compounds were observed. The percentages of the healing of the ulcer were calculated by comparing them with that of reference group.

H^+ /K^+ ATPase = molecular target: T1, H^+ /K^+ ATPase (Oryctolagus cuniculus, UniProt P27112); experiment: Inhibition of H^+ /K^+ ATPase (vesicles from gastric mucose membrane of rabbit); format: biochemical; details: pH 7.4, 37° C., 30 minutes preincubation, 15 minutes incubation; read-out: Enzyme Inhibition (IC50)
T1 construct: from tissue; host or cells: rabbit gastric mucosa, membrane vesicles (differential and Ficoll density gradient centrifugation)
T1 sequence (P27112 2-1035 limits assumed): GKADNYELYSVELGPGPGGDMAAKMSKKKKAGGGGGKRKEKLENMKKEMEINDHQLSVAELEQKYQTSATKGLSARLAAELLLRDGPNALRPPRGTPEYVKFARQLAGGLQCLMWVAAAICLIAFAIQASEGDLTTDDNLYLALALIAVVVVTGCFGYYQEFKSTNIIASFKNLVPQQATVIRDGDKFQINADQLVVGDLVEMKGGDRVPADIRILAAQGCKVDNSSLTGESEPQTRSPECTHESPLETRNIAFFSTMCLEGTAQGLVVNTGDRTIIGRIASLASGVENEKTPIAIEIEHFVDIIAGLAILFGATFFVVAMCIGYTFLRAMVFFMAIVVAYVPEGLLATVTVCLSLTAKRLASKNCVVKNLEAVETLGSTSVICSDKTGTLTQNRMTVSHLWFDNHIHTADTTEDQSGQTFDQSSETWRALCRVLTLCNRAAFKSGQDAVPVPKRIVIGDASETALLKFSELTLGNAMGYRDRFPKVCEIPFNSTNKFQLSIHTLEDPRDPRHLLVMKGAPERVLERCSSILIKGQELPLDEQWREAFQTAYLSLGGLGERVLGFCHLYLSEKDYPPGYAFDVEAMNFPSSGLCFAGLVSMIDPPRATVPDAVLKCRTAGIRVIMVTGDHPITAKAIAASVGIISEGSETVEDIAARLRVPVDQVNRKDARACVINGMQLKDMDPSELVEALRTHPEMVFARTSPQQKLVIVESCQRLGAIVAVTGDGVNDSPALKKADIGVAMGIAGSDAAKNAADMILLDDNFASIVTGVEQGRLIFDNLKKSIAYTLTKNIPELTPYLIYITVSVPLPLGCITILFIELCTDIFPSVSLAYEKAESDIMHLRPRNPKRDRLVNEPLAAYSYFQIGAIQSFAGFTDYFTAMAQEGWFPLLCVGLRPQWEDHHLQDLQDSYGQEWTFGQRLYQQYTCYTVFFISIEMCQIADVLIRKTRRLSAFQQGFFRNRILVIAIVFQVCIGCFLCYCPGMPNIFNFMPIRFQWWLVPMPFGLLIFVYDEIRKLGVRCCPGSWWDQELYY
T1 sequence (P18597 whole entry partner): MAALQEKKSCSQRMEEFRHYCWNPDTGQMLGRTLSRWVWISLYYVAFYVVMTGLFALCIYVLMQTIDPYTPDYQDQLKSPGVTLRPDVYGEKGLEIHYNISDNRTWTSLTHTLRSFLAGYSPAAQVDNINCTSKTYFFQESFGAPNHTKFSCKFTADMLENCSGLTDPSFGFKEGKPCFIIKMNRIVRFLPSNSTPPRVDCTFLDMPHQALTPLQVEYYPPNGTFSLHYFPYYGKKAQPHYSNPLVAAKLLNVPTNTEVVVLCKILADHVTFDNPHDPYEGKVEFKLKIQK
Protocol: Inhibition of H^+ /K^+ ATPase, a proton carrying enzyme, was measured by following the procedure of Saccomani et al. [Biochim. Biophy. Acta., 465, 311-330 (1977)]. Thus, a homogenate of the gastric mucose membrane of rabbit was used to prepare vesicles containing H^+ /K^+ ATPase by employing differential centrifugation and discontinuous density gradient centrifugation in Ficoll. The vesicles containing the enzyme were preincubated in a solution (0.5 ml) containing 1×10^-4 M, 1×10^-5 M, 1×10^-6 M, or 1×10^-7 M of the inventive compound (Example 21) and 5 mM of imidazole buffer (pH 7.4) at a temperature of about 37° C. for about 30 minutes. omeprazole was used as a control. A solution containing 2 mM of magnesium chloride, 40 mM of imidazole buffer (pH 7.4), 10 mM of potassium chloride and 10 mM of ATP was added to the mixture. The resulting mixture was incubated at 37° C. for 15 minutes and the reaction was terminated by adding 1 ml of ice-cold 22% solution of trichloroacetic acid. Enzyme activity was calculated by measuring the separated inorganic phosphate by following the method of Fiske and Subbarow [J. Biol. Chem., 66, 375-440 (1925)].

Gastric Secretion = experiment: Inhibition of gastric secretion (Shay pylorus ligation); format: in vivo, male Sprague-Dawley rats; details: rat, intraduodenal
Protocol: Inhibition of gastric secretion was measured by following the procedure of Shay ligation (Gastroenterology, 1954, 26, 903). Thus, male Sprague-Dawleyrats weighing 180-200 g were starved for 24 hours and their pylorus were ligated. Then, the inventive compounds (Examples 1, 13 and 17) or omeprazole as a positive control was administered into duodenum. Four hours later, the stomach was removed, and the acidity and amount of gastric juice were measured. By comparing the measured values with the acidity and amount of the gastric juice of the stomach of the reference group to which no test compound was administered, the inhibition of gastric secretion was calculated.

COc1ccc2[nH]c([S+]([O-])Cc3ncc(C)c(OC)c3C)nc2c1 (stereo not shown) [Omeprazole, reference compound]
ED50 (Ethanol-Induced Lesions): 17.1 mg/kg
ED50 (Mepirizole-Induced Ulcer): 2.8 mg/kg
ED50 [1]: 1.2 mg/kg
ED50 (Stress-Induced Ulcer): 4.4 mg/kg
Anti-ulcer activity, Acetic acid: Percentage of healing [2]: 27.1%

Br.Br.Nc1nc2c(s1)CCc1c-2sc2nc3ccccc3n12 [Example 13, 2-amino-4,5-dihydrobenzimidazo[2,1-b]thiazolo[5,4-g]benzothiazole dihydrobromide]
pIC50 (H^+ /K^+ ATPase): 3.70
Gastric juice Secretion Inhibition (percent) (Gastric Secretion; 25 mg/kg, 4 hours): 34.0%

Nc1nc2c(s1)CCc1nc3ccccn3c1-2 [Example 17, 2-amino-4,5-dihydropyrido[1,2-a]thiazolo [5,4-g]benzimidazole]
pIC50 (H^+ /K^+ ATPase): 4.31
ED50 (Gastric Secretion; 4 hours after pylorus ligation, read-out: Gastric juice Secretion Inhibition (ED50)): 15.4 mg/kg
ED50 (Ethanol-Induced Lesions): 2.91 mg/kg
ED50 (Mepirizole-Induced Ulcer): 18.7 mg/kg
ED50 [1]: 4.68 mg/kg
ED50 (Stress-Induced Ulcer): 17.6 mg/kg
Anti-ulcer activity, Acetic acid: Percentage of healing [2]: 31.59%

NC(N)=Nc1nc2c(s1)-c1nc(N)sc1CC2 [Example 18]
pIC50 (H^+ /K^+ ATPase): 4.00

CNc1nc2c(s1)CCc1c-2sc2nc(-c3ccccc3)cn12 [Example 2]
pIC50 (H^+ /K^+ ATPase): 4.67
